From the supplement of paper PMC10307832

What was measured:
Assay in all cases: relative viability (nuclei count vs DMSO), 5 days (fraction); higher = more cells survive
[1] = compound: C[C@]12O[C@H](C[C@]1(O)CO)n1c3ccccc3c3c4c(c5c6ccccc6n2c5c31)CNC4=O [Lestaurtinib] + C[C@]1(O)C[C@@H](c2nc(-c3ccc4ccc(-c5ccccc5)nc4c3)c3c(N)nccn32)C1 [Linsitinib] (partner 1 µM)
Procedure, shortened: (§1)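 Lung cancer cell lines in 1536-well plates were dosed by pin tool the day after seeding, either with one drug alone or with a fixed anchor-drug dose plus five library-drug doses (not always all listed) in √10 steps. After 5 days, cells were fixed and their nuclei stained in one step (final 0.05% Triton X-100, 1% formaldehyde, 1 ug/ml Hoechst), then counted on 4× images. Relative viability is the nuclei count in treated wells divided by that in vehicle wells. Values are medians of duplicate plates.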

[2] = compound: C1/C(=C\C2=CC=CS2)/C(=O)/C(=C/C3=CC=CS3)/C1 + Nc1ncn([C@H]2C[C@H](O)[C@@H](CO)O2)c(=O)n1 [Decitabine] (partner 2 µM)
Procedure, shortened: as §1

[3] = compound: C[C@]12O[C@H](C[C@]1(O)CO)n1c3ccccc3c3c4c(c5c6ccccc6n2c5c31)CNC4=O [Lestaurtinib] + C[C@@H](Oc1cc(-c2cnn(C3CCNCC3)c2)cnc1N)c1c(Cl)ccc(F)c1Cl [Crizotinib] (partner 1 µM)
Procedure, shortened: as §1

TPCA-1 + Olaparib = compound: C1=CC(=CC=C1C2=CC(=C(S2)NC(=O)N)C(=O)N)F [TPCA-1] + O=C(c1cc(Cc2n[nH]c(=O)c3ccccc23)ccc1F)N1CCN(C(=O)C2CC2)CC1 [Olaparib] (partner 8 µM)
Procedure, shortened: as §1

Cell Line | relative viability ([1]; first compound 0.005 µM) | relative viability ([1]; first compound 0.01581 µM) | relative viability ([1]; first compound 0.05 µM) | relative viability ([1]; first compound 0.1581 µM) | relative viability ([1]; first compound 0.5 µM) | relative viability ([2]; first compound 0.2 µM) | relative viability ([2]; first compound 0.6325 µM) | relative viability ([2]; first compound 2 µM) | relative viability ([2]; first compound 6.325 µM) | relative viability ([2]; first compound 20 µM) | relative viability ([3]; first compound 0.005 µM) | relative viability ([3]; first compound 0.01581 µM) | relative viability ([3]; first compound 0.05 µM) | relative viability ([3]; first compound 0.1581 µM) | relative viability ([3]; first compound 0.5 µM) | relative viability (TPCA-1 + Olaparib; first compound 0.04 µM) | relative viability (TPCA-1 + Olaparib; first compound 0.1265 µM) | relative viability (TPCA-1 + Olaparib; first compound 0.4 µM) | relative viability (TPCA-1 + Olaparib; first compound 1.265 µM) | relative viability (TPCA-1 + Olaparib; first compound 4 µM)
NCI-H2126 | 0.725 | 0.735 | 0.573 | 0.605 | 0.585 | 0.564 | 0.624 | 0.547 | 0.582 | 0.587 | 1.06 | 1.1 | 0.835 | 0.973 | 0.682 | 0.951 | 0.924 | 0.911 | 0.875 | 0.88
NCI-H2347 | 1.06 | 1.05 | 0.86 | 0.575 | 0.55 | 0.689 | 0.581 | 0.628 | 0.57 | 0.633 | 0.715 | 0.854 | 0.71 | 0.585 | 0.545 | 0.565 | 0.54 | 0.607 | 0.578 | 0.545
NCI-H2405 | 0.934 | 0.703 | 0.674 | 0.612 | 0.241 | 0.798 | 0.722 | 0.822 | 0.719 | 0.704 | 0.852 | 0.87 | 0.767 | 0.698 | 0.578 | 0.908 | 0.833 | 0.951 | 0.717 | 0.691
NCI-H3122 | 1.11 | 1.09 | 1.01 | 1.08 | 0.527 | 0.509 | 0.375 | 0.472 | 0.381 | 0.463 | 0.321 | 0.286 | 0.322 | 0.33 | 0.273 | 0.627 | 0.605 | 0.594 | 0.588 | 0.439
PC-3 [JPC-3] | 1.02 | 0.954 | 0.951 | 0.87 | 1 |  | 0.792 | 0.849 | 0.694 | 0.815 | 0.975 | 1.15 | 1.01 | 1.15 | 0.693 | 1.19 | 1.17 | 1.11 | 1.05 | 1
PC-14 | 0.933 | 1.04 | 0.543 | 0.613 | 0.578 | 0.224 | 0.242 | 0.233 | 0.2 | 0.216 | 0.883 | 0.958 | 0.786 | 0.595 | 0.688 | 0.295 | 0.324 | 0.308 | 0.327 | 0.341
RERF-LC-KJ | 0.964 | 0.946 | 0.535 | 0.619 | 0.516 | 0.816 | 0.767 | 0.728 | 0.619 | 0.463 | 0.856 | 0.969 | 0.674 | 0.799 | 0.6 | 0.952 | 0.857 | 0.884 | 0.911 | 0.78
SK-LU-1 | 0.883 | 0.686 | 0.537 | 0.505 | 0.261 | 0.6 | 0.627 | 0.749 | 0.478 | 0.665 | 0.663 | 0.915 | 0.433 | 0.516 | 0.312 | 0.544 | 0.37 | 0.428 | 0.418 | 0.315
SK-MES-1 | 1.04 | 1.06 | 0.501 | 0.485 | 0.317 | 0.408 | 0.424 | 0.409 | 0.335 | 0.348 | 1.02 | 0.964 | 0.92 | 0.505 | 0.281 | 0.696 | 0.577 | 0.801 | 0.611 | 0.369
SW 1573 | 0.796 | 0.841 | 0.695 | 0.615 | 0.222 | 0.609 | 0.502 | 0.552 | 0.408 | 0.456 | 0.929 | 0.88 | 0.544 | 0.423 | 0.343 | 0.539 | 0.414 | 0.481 | 0.476 | 0.48
